Data from paper PMC9663578, “A fluorogenic probe for predicting treatment response in non-small cell lung cancer with EGFR-activating mutations” (Nature Communications, 2022).
“And” between values parts separate entries of the source, which are not always exact repeats. Equal values may be shown once.

How the values were obtained:
PC-9 cells = experiment: FACS assay in cultured cells; conditions: for HX103 dose-dependent signal (Supplementary Fig. 18): 20 µM = 100
Procedure: (§1) The FACS assay was performed according to the reported literatures[67],[68]. Briefly, the cultured cells were seeded on the petri dish and counted using Count star BioMed automated cell counter. Around 10^6 live-cells were collected and were pelleted (2000×g, 3 min), followed by washing with PBS (2x). Cells were then resuspended in PBS buffer containing 0.1% BSA (1 × 10^6 cells/mL). […] The cell suspension was resuspended in PBS and analyzed with a FACSVerse^TM flow cytometer (BD Biosciences, LSRFortessa). About 10,000 events per tube were analyzed and the mean fluorescence intensity was detected and analyzed.
(§2) For the FACS assay with EGFR antibody, around 10^6 live-cells were collected and washed with PBS (2x). The cells were fixed by 400 µL 4% paraformaldehyde for 15 min at room temperature, followed by permeabilization with 0.1% Triton X-100 for 10 min and blocking with 5% BSA for 30 min. […] The cells were then washed with 0.5% BSA/PBS (3x) and resuspended in 400 µL of 0.1% BSA/PBS. […] The resuspended cell suspension was then analyzed on a FACSVerseTM flow cytometer (BD Biosciences, LSRFortessa). Nonspecific fluorescence binding was omitted by Rabbit mAb IgG isotype control (#3900, CST, 1:100) and the corresponding mean fluorescence was subtracted from the signal measured with each primary antibody. About 10,000 events per tube were analyzed and the mean fluorescence intensity was detected and analyzed.
(§3) Subsequently, the treated cells were incubated for 30 min at 37 °C, followed by washing with PBS buffer three times. […] Finally, the co-stained cells were washed with 0.5% BSA/PBS for three times and resuspended in 400 µL of 0.1% BSA/PBS. The obtained cell suspension was ready for analysis. Nonspecific fluorescence binding was omitted by Rabbit mAb IgG isotype control (#3900, CST, 1:100) as described above.
(§4) Nonspecific fluorescence binding was omitted by Rabbit mAb IgG isotype control (#3900, CST, 1:100). […] After incubation for another 30 min at room temperature, the co-stained cells were washed with 0.5% BSA/PBS for three times and resuspended in 400 µL of 0.1% BSA/PBS. The obtained cell suspension was ready for analysis. Nonspecific fluorescence binding was omitted by Rabbit mAb IgG isotype control (#3900, CST, 1:100) as described above.
(§5) The cells were seeded on the petri dish and cultured at the normal condition with 10% FBS, and that was changed to serum-free condition for 24 h when the cells proliferated at ~80% confluence. […] Nonspecific fluorescence binding was omitted by Rabbit mAb IgG isotype control (#3900, CST, 1:100) as described above.

EGFR wild-type = molecular target: T1, EGFR wild-type (Homo sapiens, UniProt P00533); experiment: Fluorescence turn-on response / titration of HX103 with recombinant EGFR;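 as to Fluorescence intensity at 570 nm: 100% is HX103 fluorescence with wild-type EGFR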; format: binding; conditions: for Fluorescence intensity at 570 nm / Fluorescence response of HX103 to EGFR wild-type: n=1-3; for Fluorescence intensity, Wild-type: Fig. 2c; for Fluorescence response of HX103 to EGFR wild-type: Supplementary Fig. 2f
T1 construct: Recombinant human EGFR (amino acids 668–1210, #PR7295B); purchased Thermo Fisher PR7295B
Procedure: (§6) (d) Fluorescence spectra change of HX103 (5 µ M) with increasing concentration of EGFR L858R
(§7) (e) Fluorescence spectra change of HX103 (5 µ M ) with
(§8) increasing concentration of EGFR 19del (0 to 6 µM) in PBS buffer. (f) Titration curve of HX103
(§9) (5 µM) with increasing concentration of EGFRs (0 to 6 µM). The apparent binding affinity (Kd)
(§10) The fluorescence titration curve was fitted on one -
(§11) site specific binding model. I and I0 represent the intensities of HX103 at 570 nm in the presence
(§12) and absence of protein. Data represent average val ues ± SD, n = 3 independent experiments per
(§13) dissolved in dimethyl sulfoxide (DMSO) to obtain stock solutions (10 mM). The prepared stock
(§14) solution was diluted in sodium phosphate buffer (PBS, 1 M, pH=7.4) to obtain the desired final
(§15) concentration solution, containing 0.1% (v/v) DMSO as a cosolvent.
(§16) and emission fluorescence spectra of the solution before/after addition o f different concentration
(§17) Data analysis：The obtained fluorescence intensity at 570 nm (Excitation wavelength was 440
(§18) nm) in each sample was normalized by using the fluorescence intensity of HX103 in the presence
(§19) of EGFR. Specifically, the fluorescence intensity of HX103 in the presence of EGFR wild-type
(§20) was set at 100% to normalized that of the remaining samples.

BSA = BSA (Bos taurus, UniProt P02769); experiment: Fluorescence response of HX103 with BSA (control protein); format: binding; conditions: Fig. 2d, n=1-3
MTT cytotoxicity assay = format: cell-based; conditions: human, A431 cells, EGFR wild-type, n=3
MCF-7 cells = experiment: FACS assay in cultured cells
Procedure: as §1, §2, §3, §4, §5

EGFR T790M = molecular target: T2, EGFR T790M (Homo sapiens, UniProt P00533, T790M); experiment: Fluorescence turn-on response / titration of HX103 with recombinant EGFR; format: binding; conditions: Fig. 2c
T2 construct: EGFR T790M (amino acids 668–1210, #PR8052A); purchased Thermo Fisher PR8052A
Procedure: as §6, §7, §8, §9, §10, §11, §12, §13, §14, §15, §16, §17, §18, §19, §20

[1] = HX103 5 µM, 30 min, replicates n=1-3

Chain of BSA (P02769 25-607): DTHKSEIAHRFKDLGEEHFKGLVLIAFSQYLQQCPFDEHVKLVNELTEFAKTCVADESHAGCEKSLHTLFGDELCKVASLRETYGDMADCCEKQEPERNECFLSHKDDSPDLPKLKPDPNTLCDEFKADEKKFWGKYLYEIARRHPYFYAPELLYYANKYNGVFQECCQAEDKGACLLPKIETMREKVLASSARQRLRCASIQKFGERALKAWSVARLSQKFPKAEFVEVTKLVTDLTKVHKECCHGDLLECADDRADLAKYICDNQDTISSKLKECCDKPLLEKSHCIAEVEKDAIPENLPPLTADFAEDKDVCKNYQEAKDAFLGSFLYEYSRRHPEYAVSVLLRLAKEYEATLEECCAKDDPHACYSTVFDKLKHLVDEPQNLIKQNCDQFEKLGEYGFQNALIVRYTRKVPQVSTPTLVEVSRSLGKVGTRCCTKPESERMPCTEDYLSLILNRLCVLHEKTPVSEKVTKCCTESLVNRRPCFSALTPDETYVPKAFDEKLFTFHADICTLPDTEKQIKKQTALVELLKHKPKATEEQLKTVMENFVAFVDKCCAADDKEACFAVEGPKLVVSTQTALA

Fluorescence intensity at 570 nm (EGFR wild-type; Fig. 2b, EGFR+Afa.+HX103): 40.8352 and 40.5015 and 39.6477
Fluorescence intensity at 570 nm (EGFR wild-type; Fig. 2b, EGFR+Compound 4+HX103): 34.8404 and 34.012 and 33.2139
Fluorescence intensity at 570 nm (EGFR wild-type; Fig. 2b, EGFR+Gef.+HX103): 52.1782 and 56.1359 and 43.6715
Fluorescence intensity at 570 nm (EGFR wild-type; Fig. 2b, EGFR+HX103): 102.993 and 106.909 and 90.0974
Fluorescence intensity, Wild-type (EGFR wild-type; wavelength 666 nm): 3857.08
Fluorescence intensity, Wild-type (EGFR wild-type; wavelength 669 nm): 3668.59
Fluorescence intensity, Wild-type (EGFR wild-type; wavelength 671 nm): 3481.17
Fluorescence intensity, Wild-type (EGFR wild-type; wavelength 673 nm): 3297.98
Fluorescence intensity, Wild-type (EGFR wild-type; wavelength 676 nm): 3120.62
Fluorescence intensity, Wild-type (EGFR wild-type; wavelength 678 nm): 2950.6
Fluorescence intensity, Wild-type (EGFR wild-type; wavelength 681 nm): 2789.44
Fluorescence intensity, Wild-type (EGFR wild-type; wavelength 683 nm): 2638.8
Fluorescence intensity, Wild-type (EGFR wild-type; wavelength 686 nm): 2500.58
Fluorescence intensity, Wild-type (EGFR wild-type; wavelength 688 nm): 2376.72
Fluorescence intensity, Wild-type (EGFR wild-type; wavelength 690 nm): 2269.12
Fluorescence intensity, Wild-type (EGFR wild-type; wavelength 693 nm): 2178.16
Fluorescence intensity, Wild-type (EGFR wild-type; wavelength 695 nm): 2100.14
Fluorescence intensity, Wild-type (EGFR wild-type; wavelength 698 nm): 2030.74
Fluorescence intensity, Wild-type (EGFR wild-type; wavelength 700 nm): 1965.66
Fluorescence intensity at 570 nm (EGFR wild-type; Fig. 2d, HX103 with EGFR WT): 95.7649 and 96.5955 and 107.639
fluorescence turn-on response (EGFR wild-type; HX103 5 µM in PBS buffer (0.1% DMSO), 570 nm): high fluorescence
Kd (EGFR wild-type; HX103 5 µM, EGFR 0 to 6 µM in PBS, one-site specific binding model, read-out: apparent binding affinity (Kd)): 2.7 ± 0.4 µM
Fluorescence response of HX103 to EGFR wild-type (EGFR wild-type; EGFR 0.1 µM): 1.163 and 1.321 and 1.006
Fluorescence response of HX103 to EGFR wild-type (EGFR wild-type; EGFR 0.5 µM): 2.913 and 3.724 and 2.102
Fluorescence response of HX103 to EGFR wild-type (EGFR wild-type; EGFR 5 µM): 10.0441 and 11.0703 and 9.62
Fluorescence response of HX103 to EGFR wild-type (EGFR wild-type; EGFR 6 µM): 11.047 and 11.7068 and 10.3878
Fluorescence intensity at 570 nm (BSA): 39.1473 and 21.3173 and 35.8927
Fluorescence intensity, T790M (EGFR T790M; wavelength 666 nm): 2748.26
Fluorescence intensity, T790M (EGFR T790M; wavelength 669 nm): 2609.98
Fluorescence intensity, T790M (EGFR T790M; wavelength 671 nm): 2444.87
Fluorescence intensity, T790M (EGFR T790M; wavelength 673 nm): 2257.89
Fluorescence intensity, T790M (EGFR T790M; wavelength 676 nm): 2067.13
Fluorescence intensity, T790M (EGFR T790M; wavelength 678 nm): 1891.35
Fluorescence intensity, T790M (EGFR T790M; wavelength 681 nm): 1749.2
Fluorescence intensity, T790M (EGFR T790M; wavelength 683 nm): 1648.24
SMILES: COc1cc2c(Nc3ccc(F)c(Cl)c3)ncnc2cc1OCCCNc1ccc(S(=O)(=O)N(C)C)c2nonc12 [HX103]
normalized MFI of HX103 labeling (PC-9 cells; [1]): 81.9742% and 91.6309% and 86.8026%
EGFR(+) HX103 (+) (%) (PC-9 cells; HX103 5 µM, replicates n=1-3): 64.51% and 67.13% and 48.39%
EGFR(+) HX103 (+) (%) AVE (PC-9 cells; PC-9, AVE of n=3): 60.01%
HX103 (+) (%) AVE (PC-9 cells; PC-9, AVE of n=3): 59.6433%
HX103 dose-dependent signal (Supplementary Fig. 18) (PC-9 cells; PC-9, HX103 0.37 µM): 18.3072 and 15.0075 and 16.6544
HX103 dose-dependent signal (Supplementary Fig. 18) (PC-9 cells; PC-9, HX103 3.3 µM): 59.5109 and 51.9447 and 55.7208
HX103 dose-dependent signal (Supplementary Fig. 18) (PC-9 cells; PC-9, HX103 10 µM): 68.1021 and 78.5978 and 73.3469
HX103 dose-dependent signal (Supplementary Fig. 18) (PC-9 cells; PC-9, HX103 15 µM): 80.0389 and 87.1198 and 83.5744
HX103 dose-dependent signal (Supplementary Fig. 18) (PC-9 cells; PC-9, HX103 20 µM): 100
HX103 signal (Supplementary Fig. 7) (PC-9 cells; PC-9, HX103 alone or with Gefitinib, replicates n=1-3): 103.242 and 99.7186 and 97.0394
EGFR(+) HX103 (+) (%) (PC-9 cells; PC-9, replicates n=1-3): 48.39% and 64.51% and 67.13%
HX103(+) (%) (PC-9 cells; PC-9, replicates n=1-3): 59.69% and 66.68% and 52.56%
IC50 at 48 h (MTT cytotoxicity assay): 26 µM
normalized MFI of HX103 labeling (MCF-7 cells; [1]): 25.1073% and 53.6481% and 30.8069%
EGFR(+) HX103 (+) (%) (MCF-7 cells; HX103 5 µM, replicates n=1-3): 0.04% and 0.02% and 0.09%
EGFR(+) HX103 (+) (%) AVE (MCF-7 cells; MCF-7, AVE of n=3): 0.05%
HX103 (+) (%) AVE (MCF-7 cells; MCF-7, AVE of n=3): 0.5297%
EGFR(+) HX103 (+) (%) (MCF-7 cells; MCF-7, replicates n=1-3): 0.09% and 0.04% and 0.02%
HX103(+) (%) (MCF-7 cells; MCF-7, replicates n=1-3): -0.051% and 1.21% and 0.43%
